This note sets out measurements from patent US20240316141A1, “The Use of Thiourea and Thiourea Derivatives As Potentiators of Antibacterial Activity of Peptoids” (The Board of Trustees of the Leland Stanford Junior …, priority 2021, published 2024).

Experiment [1] has as its system bacterial growth. The experiment in a line: MIC of different peptoids in the presence and absence of thiourea. The experiment is classed as cell-based. Conditions: presence vs absence of thiourea; FIGS. 6A-6E.
Experiment [2] deals with bacterial growth. Description: MIC of peptoid in the presence and absence of urea, 24 hour incubation. The experiment is classed as cell-based. As to conditions: MIC of TM5 in presence vs absence of urea. Here is the method:
FIG. 8. The minimum inhibitory concentration (MIC) of peptoid (TM5) in the presence and absence of urea was examined. MIC was defined as the lowest concentration of peptoid that will inhibit the bacterial growth (i.e., increasing absorbance at 600 nm) after a 24 hour incubation.

Experiment [3] has as its system bacterial growth. The experiment in a line: MIC of antimicrobial peptide in the presence and absence of thiourea, 24 hour incubation. The experiment is classed as cell-based. Conditions: presence vs absence of thiourea. Here is the method:
FIG. 7. The minimum inhibitory concentration (MIC) of an antimicrobial peptide (LL-37) in the presence and absence of thiourea was examined. MIC was defined as the lowest concentration of an antimicrobial peptide that will inhibit the bacterial growth (i.e., increasing absorbance at 600 nm) after a 24 hour incubation.

Another experiment relates to Pseudomonas aeruginosa. Description: MIC of peptoid in the presence and absence of thiourea, 24 h incubation, absorbance at 600 nm. The experiment is classed as cell-based. As to conditions: presence vs absence of thiourea. Here is the method: FIG. 1. The minimum inhibitory concentration (MIC) of peptoid (TM5) in the presence and absence of thiourea was examined. MIC was defined as the lowest concentration of peptoid that will inhibit the bacterial growth (i.e., increasing absorbance at 600 nm) after 24 h incubation.

The test system of the next experiment is Klebsiella pneumoniae. The experiment is described as above. The experiment is classed as cell-based. Conditions: Klebsiella pneumoniae (ciprofloxacin-resistant), presence vs absence of thiourea. Here is the method:
FIG. 2. The minimum inhibitory concentration (MIC) of peptoid (TM5) in the presence and absence of thiourea was examined. MIC was defined as the lowest concentration of peptoid that will inhibit the bacterial growth (i.e., increasing absorbance at 600 nm) after 24 h incubation.

The subject of the next experiment is Staphylococcus aureus. Described as above. The experiment is classed as cell-based. Conditions: presence vs absence of thiourea. Here is the method: FIG. 3. The minimum inhibitory concentration (MIC) of peptoid (TM5) in the presence and absence of thiourea was examined. MIC was defined as the lowest concentration of peptoid that will inhibit the bacterial growth (i.e., increasing absorbance at 600 nm) after 24 h incubation.

Experiment [4] deals with PA01 ofloxacin induced persister cells. The experiment in a line: Eradication of ofloxacin induced persister cells. The class given is cell-based, Pseudomonas aeruginosa. Conditions: PA01 persister cells from stationary phase culture treated with ofloxacin 5 μg/ml for 24 h.

Take “H-Ntridec-(NLys-Nspe-Nspe(p-Br))2-NLys-NH2 [TM20]”: the “effect of thiourea on antimicrobial activity (MIC) of different peptoids” value (“effect of thiourea … of different peptoids” below) in the experiment on bacterial growth [1] was “increases antimicrobial activity”.
In the case of `NC(N)=O` [urea], in the experiment on bacterial growth [2], the “synergy of urea with peptoid TM5 (MIC)” value was “did not synergize”.
Turning to “H—(NLys-Nspe(p-Br)-Nspe(p-Br))2—NH2 [TM4]”, in the experiment on bacterial growth [1], the “effect of thiourea … of different peptoids” value is listed as “increases antimicrobial activity”.
Same read-out and setting: the same measure for “H—(NLys-Nspe-Nspe)3-NLys-Nspe-NLys-NH2 [TM16]”: “increases antimicrobial activity”.
For the molecule LL-37: antimicrobial peptide (LL-37), the “synergy of thiourea with antimicrobial peptide (MIC)” value with bacterial growth [3] was “did not synergize”.
Take H-Ntridec-NLys-Nspe-Nspe-NLys-NH2 [TM5]: the “effect of thiourea on minimum inhibitory concentration (MIC) / antimicrobial activity of peptoid” value with Pseudomonas aeruginosa, in the experiment on Klebsiella pneumoniae and in the experiment with Staphylococcus aureus was “increases antimicrobial activity” in each case. For the same molecule, the “effect of thiourea on persister eradication capability” value in experiment [4] was “enhance the persister eradication capability”. Moreover, the “effect of thiourea … of different peptoids” value in the experiment on bacterial growth [1] was “increases antimicrobial activity”.
